Experimental data from patent US20030055107A1, “Forms of pharmaceutically active agents and method for manufacture thereof” (priority 2001, published 2003).

Legend:
[1] = Dynamic Vapor Sorption Moisture Balance, relative weight gain due to moisture pickup; assay type: physicochemical; conditions: for critical humidity: cycled between 0% RH to 95% RH to 0% RH over 48 hours at 25° C.
Description: Samples were cycled between 0% RH to 95% RH to 0% RH over 48 hours at 25° C. […] At 50% humidity, the relative weight gain due to moisture pickup was about 25% while at 70% humidity the relative weight gain was about 35%. […] At 50% humidity the relative weight gain due to moisture pickup was about 1.4% and at 70% humidity the weight gain was bout 2%.

[2] = Dissolution of dried new form in water (observation); assay type: physicochemical; conditions: dried form with potassium cation placed in water
Text: The new ibuprofen form of the present invention dissociates into ibuprofen in its free acid form.

[3] = cited from earlier work

Compound: CC(C)Cc1ccc(C(C)C(=O)O)cc1.CC(C)Cc1ccc(C(C)C(=O)[O-])cc1.[K+] (stereo not shown) [new ibuprofen form]
- hygroscopicity compared to the potassium salt of ibuprofen ([1]; 0-95% RH cycle, 25° C.): significantly less hygroscopic
- physical change of sample during humidity cycling ([1]; 0-95% RH cycle, 25° C.): No change in crystal appearance was observed
- critical humidity [1]: about 30%
- dissolution in water (in words) [2]: readily dissolves in water
- dissolution in water (in words) ([2]; listed as ibuprofen form of the present invention wherein the cation is potassium): immediate dissolution

Compound: CC(C)Cc1ccc(C(C)C(=O)O)cc1.[K] (stereo not shown) [potassium ibuprofen]
- physical change of sample during humidity cycling ([1]; 0-95% RH cycle, 25° C.): the sample dissolved and formed a gel
- critical humidity [1]: about 30%
- solubility (in words) ([3]; background statement): highly soluble

Compound: CC(C)Cc1ccc(C(C)C(=O)O)cc1 (racemic) [Ibuprofen, ibuprofen]
- solubility in water ([3]; water): < 100 µg/mL

Compound: CO[C@@H]1[C@@H](OC(N)=O)[C@@H](O)[C@H](Oc2ccc3c(O)c(NC(=O)c4ccc(O)c(CC=C(C)C)c4)c(=O)oc3c2C)OC1(C)C [novobiocin]
- solubility of amorphous substance versus crystalline agent ([3]; amorphous vs crystalline, Mullins and Macek 1960): ten times higher
